Measurements from ChEMBL document CHEMBL3124829, “Discovery of SCH 900188: A Potent Hepatitis C Virus NS5B Polymerase Inhibitor Prodrug As a Development Candidate” (ACS Med Chem Lett, 2014).
Calls of active or inactive are those of the source. The calls are words filed in the database; no cut-off is given here.

Columns and labels:
[1] = test system: Rattus norvegicus; experiment: AUC (0 to 6 hrs) in rat assessed as 4-Fluoro-6-((7-fluoro-4-oxo-3,4-dihydroquinazolin-6-yl)methyl)-8-(2-oxo-1,2-dihydropyridin-3-yl)-6H-furo[2,3-e]indole-7-carboxylic acid at 10 mg/kg, po; type: ADME, organism-based, Plasma; design: time < 6 hr, dose 10 mg/kg, route oral; settings: in vivo
[2] = test system: Hepatitis C virus; experiment: Antiviral activity against HCV infected in human hepatoma cells assessed as inhibition of viral RNA replication after 3 days by real time PCR analysis; type: functional, organism-based, Hepacivirus hominis; settings: 72 h
[3] = Inhibition of HCV genotype 1b C-terminal polyhistidine-tagged NS5B Cdelta21 RdRp expressed in Escherichia coli using DCoH75 as template assessed as incorporation of [33P]-CTP in polynucleotide sequence after 2 hrs by scintillation counting analysis; design: species or system Hepatitis C virus subtype 1b
[4] = species: Rattus norvegicus; experiment: Ratio of drug level from liver to plasma in rat assessed as 4-Fluoro-6-((7-fluoro-4-oxo-3,4-dihydroquinazolin-6-yl)methyl)-8-(2-oxo-1,2-dihydropyridin-3-yl)-6H-furo[2,3-e]indole-7-carboxylic acid after 6 hrs; settings: other tissue
[5] = test system: Salmonella typhimurium; experiment: Mutagenic activity in Salmonella typhimurium by mini Ames test; type: toxicity, organism-based; settings: salmonella enterica subsp. enterica serovar typhimurium
[6] = Half life in dog at 1 mg/kg, iv; type: ADME, organism-based, Canis lupus familiaris; design: dose 1 mg/kg, route intravenous; settings: in vivo
[7] = test system: RNA-directed RNA polymerase (Hepacivirus hominis), O39930 [C316Y]; experiment: Inhibition of HCV NS5B RdRp C316Y mutant active site
[8] = Clearance in iv dosed rat; type: ADME, organism-based; settings: in vivo
[9] = Half life in rat at 3 mg/kg, iv; type: ADME, organism-based; design: dose 3 mg/kg, route intravenous; settings: in vivo
[10] = test system: RNA-directed RNA polymerase (Hepacivirus hominis), O39930 [G554D]; experiment: Inhibition of HCV NS5B RdRp G554D mutant palm allosteric site
[11] = Inhibition of HCV genotype 2a C-terminal polyhistidine-tagged NS5B Cdelta21 RdRp expressed in Escherichia coli using DCoH75 as template assessed as incorporation of [33P]-CTP in polynucleotide sequence after 2 hrs by scintillation counting analysis; design: species or system Hepatitis C virus subtype 2a
[12] = Clearance in iv dosed monkey; type: ADME, organism-based, Macaca mulatta; settings: rhesus monkey, in vivo
[13] = Cmax in dog; type: ADME, organism-based, Canis lupus familiaris; settings: in vivo
[14] = test system: RNA-directed RNA polymerase (Hepacivirus hominis), O39930 [M414T]; experiment: Inhibition of HCV NS5B RdRp M414T mutant active site
[15] = AUC (0 to 24 hrs) in monkey at 3 mg/kg, po; type: ADME, organism-based, Macaca mulatta; design: time < 24 hr, dose 3 mg/kg, route oral; settings: rhesus monkey, plasma
[16] = Cmax in monkey; type: ADME, organism-based, Macaca mulatta; settings: rhesus monkey, in vivo
[17] = AUC (0 to 6 hrs) in rat at 10 mg/kg, po; type: ADME, organism-based; design: time < 6 hr, dose 10 mg/kg, route oral; settings: plasma
[18] = Inhibition of HCV genotype 4a C-terminal polyhistidine-tagged NS5B Cdelta21 RdRp expressed in Escherichia coli using DCoH75 as template assessed as incorporation of [33P]-CTP in polynucleotide sequence after 2 hrs by scintillation counting analysis; design: species or system Hepatitis C virus subtype 4a
[19] = AUC (0 to 24 hrs) in dog at 3 mg/kg, po; type: ADME, organism-based, Canis lupus familiaris; design: time < 24 hr, dose 3 mg/kg, route oral; settings: plasma
[20] = Half life in monkey at 1 mg/kg, iv; type: ADME, organism-based, Macaca mulatta; design: dose 1 mg/kg, route intravenous; settings: rhesus monkey, in vivo
[21] = Mutagenic activity in micronucleus (unknown origin); type: ADME
[22] = Clearance in iv dosed dog; type: ADME, organism-based, Canis lupus familiaris; settings: in vivo
[23] = Inhibition of HCV genotype 3a C-terminal polyhistidine-tagged NS5B Cdelta21 RdRp expressed in Escherichia coli using DCoH75 as template assessed as incorporation of [33P]-CTP in polynucleotide sequence after 2 hrs by scintillation counting analysis; design: species or system Hepatitis C virus subtype 3a
[24] = Oral bioavailability in monkey; type: ADME, organism-based, Macaca mulatta; settings: rhesus monkey, in vivo
[25] = Oral bioavailability in rat; type: ADME, organism-based; settings: in vivo
[26] = test system: RNA-directed RNA polymerase (Hepacivirus hominis), O39930 [G554D]; experiment: Inhibition of HCV NS5B RdRp G554D mutant active site
[27] = Oral bioavailability in dog; type: ADME, organism-based, Canis lupus familiaris; settings: in vivo
[28] = Inhibition of HCV genotype 1a C-terminal polyhistidine-tagged NS5B Cdelta21 RdRp expressed in Escherichia coli using DCoH75 as template assessed as incorporation of [33P]-CTP in polynucleotide sequence after 2 hrs by scintillation counting analysis; design: species or system Hepatitis C virus subtype 1a
[29] = test system: RNA-directed RNA polymerase (Hepacivirus hominis), O39930 [M414T]; experiment: Inhibition of HCV NS5B RdRp M414T mutant palm allosteric site
[30] = Cmax in rat; type: ADME, organism-based; settings: in vivo
[31] = test system: RNA-directed RNA polymerase (Hepacivirus hominis), O39930 [C316Y]; experiment: Inhibition of HCV NS5B RdRp C316Y mutant palm allosteric site
[32] = AUC (0 to 24 hrs) in rat at 10 mg/kg, po; type: ADME, organism-based; design: time < 24 hr, dose 10 mg/kg, route oral; settings: plasma
[33] = Solubility of the compound at pH 3; type: physicochemical; settings: buffer
[34] = test system: Rhesus monkey; experiment: Half life in monkey assessed as 4-Fluoro-6-((7-fluoro-4-oxo-3,4-dihydroquinazolin-6-yl)methyl)-8-(2-oxo-1,2-dihydropyridin-3-yl)-6H-furo[2,3-e]indole-7-carboxylic acid at 1 mg/kg, iv; type: ADME, organism-based, Macaca mulatta; design: dose 1 mg/kg, route intravenous; settings: in vivo
[35] = test system: Rattus norvegicus; experiment: Half life in rat assessed as 4-Fluoro-6-((7-fluoro-4-oxo-3,4-dihydroquinazolin-6-yl)methyl)-8-(2-oxo-1,2-dihydropyridin-3-yl)-6H-furo[2,3-e]indole-7-carboxylic acid at 3 mg/kg, iv; type: ADME, organism-based; design: dose 3 mg/kg, route intravenous; settings: in vivo
[36] = test system: Rattus norvegicus; experiment: AUC (0 to 24 hrs) in rat assessed as 4-Fluoro-6-((7-fluoro-4-oxo-3,4-dihydroquinazolin-6-yl)methyl)-8-(2-oxo-1,2-dihydropyridin-3-yl)-6H-furo[2,3-e]indole-7-carboxylic acid at 10 mg/kg, po; type: ADME, organism-based, Plasma; design: time < 24 hr, dose 10 mg/kg, route oral; settings: in vivo
[37] = test system: Canis familiaris; experiment: AUC (0 to 24 hrs) in dog assessed as 4-Fluoro-6-((7-fluoro-4-oxo-3,4-dihydroquinazolin-6-yl)methyl)-8-(2-oxo-1,2-dihydropyridin-3-yl)-6H-furo[2,3-e]indole-7-carboxylic acid at 3 mg/kg, po; type: ADME, organism-based, Canis lupus familiaris, Plasma; design: time < 24 hr, dose 3 mg/kg, route oral; settings: in vivo
[38] = species: Canis familiaris; experiment: Cmax in dog assessed as 4-Fluoro-6-((7-fluoro-4-oxo-3,4-dihydroquinazolin-6-yl)methyl)-8-(2-oxo-1,2-dihydropyridin-3-yl)-6H-furo[2,3-e]indole-7-carboxylic acid; type: ADME, organism-based, Canis lupus familiaris; settings: in vivo
[39] = test system: Canis familiaris; experiment: Half life in dog assessed as 4-Fluoro-6-((7-fluoro-4-oxo-3,4-dihydroquinazolin-6-yl)methyl)-8-(2-oxo-1,2-dihydropyridin-3-yl)-6H-furo[2,3-e]indole-7-carboxylic acid at 1 mg/kg, iv; type: ADME, organism-based, Canis lupus familiaris; design: dose 1 mg/kg, route intravenous; settings: in vivo
[40] = test system: Rattus norvegicus; experiment: Oral bioavailability in rat assessed as 4-Fluoro-6-((7-fluoro-4-oxo-3,4-dihydroquinazolin-6-yl)methyl)-8-(2-oxo-1,2-dihydropyridin-3-yl)-6H-furo[2,3-e]indole-7-carboxylic acid; type: ADME, organism-based; settings: in vivo
[41] = test system: Canis familiaris; experiment: Oral bioavailability in dog assessed as 4-Fluoro-6-((7-fluoro-4-oxo-3,4-dihydroquinazolin-6-yl)methyl)-8-(2-oxo-1,2-dihydropyridin-3-yl)-6H-furo[2,3-e]indole-7-carboxylic acid; type: ADME, organism-based, Canis lupus familiaris; settings: in vivo
[42] = test system: Rhesus monkey; experiment: Oral bioavailability in monkey assessed as 4-Fluoro-6-((7-fluoro-4-oxo-3,4-dihydroquinazolin-6-yl)methyl)-8-(2-oxo-1,2-dihydropyridin-3-yl)-6H-furo[2,3-e]indole-7-carboxylic acid; type: ADME, organism-based, Macaca mulatta; settings: in vivo
[43] = test system: Rhesus monkey; experiment: Cmax in monkey assessed as 4-Fluoro-6-((7-fluoro-4-oxo-3,4-dihydroquinazolin-6-yl)methyl)-8-(2-oxo-1,2-dihydropyridin-3-yl)-6H-furo[2,3-e]indole-7-carboxylic acid; type: ADME, organism-based, Macaca mulatta; settings: in vivo
[44] = test system: Rhesus monkey; experiment: AUC (0 to 24 hrs) in monkey assessed as 4-Fluoro-6-((7-fluoro-4-oxo-3,4-dihydroquinazolin-6-yl)methyl)-8-(2-oxo-1,2-dihydropyridin-3-yl)-6H-furo[2,3-e]indole-7-carboxylic acid at 3 mg/kg, po; type: ADME, organism-based, Macaca mulatta, Plasma; design: time < 24 hr, dose 3 mg/kg, route oral; settings: in vivo
[45] = species: Rattus norvegicus; experiment: Cmax in rat assessed as 4-Fluoro-6-((7-fluoro-4-oxo-3,4-dihydroquinazolin-6-yl)methyl)-8-(2-oxo-1,2-dihydropyridin-3-yl)-6H-furo[2,3-e]indole-7-carboxylic acid; type: ADME, organism-based; settings: in vivo

Sequence of RNA-directed RNA polymerase (Hepacivirus hominis), O39930 [M414T] (O39930 entry or part of it M414T): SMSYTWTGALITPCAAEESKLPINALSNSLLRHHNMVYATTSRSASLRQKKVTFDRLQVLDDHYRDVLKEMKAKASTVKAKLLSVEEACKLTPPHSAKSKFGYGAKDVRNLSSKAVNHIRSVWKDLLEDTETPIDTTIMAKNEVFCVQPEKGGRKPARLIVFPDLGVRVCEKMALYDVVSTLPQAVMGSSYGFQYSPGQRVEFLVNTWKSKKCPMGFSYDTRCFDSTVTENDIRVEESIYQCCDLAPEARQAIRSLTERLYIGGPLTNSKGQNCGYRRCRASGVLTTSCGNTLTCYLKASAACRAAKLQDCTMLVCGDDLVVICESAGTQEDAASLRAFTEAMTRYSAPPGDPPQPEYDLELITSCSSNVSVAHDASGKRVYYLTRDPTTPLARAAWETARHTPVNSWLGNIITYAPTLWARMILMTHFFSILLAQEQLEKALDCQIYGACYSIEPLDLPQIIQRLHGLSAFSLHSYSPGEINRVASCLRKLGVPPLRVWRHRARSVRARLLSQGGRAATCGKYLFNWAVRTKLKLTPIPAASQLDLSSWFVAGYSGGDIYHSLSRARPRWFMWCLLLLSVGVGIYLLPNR
Sequence of RNA-directed RNA polymerase (Hepacivirus hominis), O39930 [G554D] (O39930 entry or part of it G554D): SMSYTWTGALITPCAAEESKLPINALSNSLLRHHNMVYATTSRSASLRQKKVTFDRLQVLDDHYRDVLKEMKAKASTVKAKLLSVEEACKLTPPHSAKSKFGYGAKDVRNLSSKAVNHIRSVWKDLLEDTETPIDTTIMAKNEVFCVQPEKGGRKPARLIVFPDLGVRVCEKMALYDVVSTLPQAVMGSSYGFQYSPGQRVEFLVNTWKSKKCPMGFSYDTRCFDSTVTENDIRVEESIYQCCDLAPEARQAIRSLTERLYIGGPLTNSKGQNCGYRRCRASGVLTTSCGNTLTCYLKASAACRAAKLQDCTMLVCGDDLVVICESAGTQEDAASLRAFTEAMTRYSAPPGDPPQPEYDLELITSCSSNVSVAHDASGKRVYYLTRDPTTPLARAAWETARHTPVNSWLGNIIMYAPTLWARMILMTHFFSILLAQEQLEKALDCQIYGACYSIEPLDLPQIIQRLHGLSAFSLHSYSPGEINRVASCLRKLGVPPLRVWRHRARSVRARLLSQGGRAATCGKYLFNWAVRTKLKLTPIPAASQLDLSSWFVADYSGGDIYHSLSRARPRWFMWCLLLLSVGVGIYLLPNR
Sequence of RNA-directed RNA polymerase (Hepacivirus hominis), O39930 [C316Y] (O39930 entry or part of it C316Y): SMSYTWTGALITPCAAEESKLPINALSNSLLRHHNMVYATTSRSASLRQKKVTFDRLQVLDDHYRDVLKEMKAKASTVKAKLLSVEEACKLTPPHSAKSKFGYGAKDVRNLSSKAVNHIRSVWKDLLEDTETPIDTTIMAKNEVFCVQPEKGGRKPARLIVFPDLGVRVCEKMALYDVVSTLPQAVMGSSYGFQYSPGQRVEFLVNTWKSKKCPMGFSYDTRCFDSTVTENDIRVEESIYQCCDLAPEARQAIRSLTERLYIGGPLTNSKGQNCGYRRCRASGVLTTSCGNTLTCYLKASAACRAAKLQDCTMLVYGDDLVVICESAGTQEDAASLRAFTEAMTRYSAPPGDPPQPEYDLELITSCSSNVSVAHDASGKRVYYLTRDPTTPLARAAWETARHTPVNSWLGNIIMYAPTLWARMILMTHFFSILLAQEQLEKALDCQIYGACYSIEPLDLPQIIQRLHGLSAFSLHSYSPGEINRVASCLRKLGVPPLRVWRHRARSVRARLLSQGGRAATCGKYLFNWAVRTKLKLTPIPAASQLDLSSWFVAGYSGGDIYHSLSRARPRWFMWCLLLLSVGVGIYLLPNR

For `CN(C)CCCOC(=O)c1c(-c2ccc[nH]c2=O)c2c3occc3c(F)cc2n1Cc1cc2c(=O)[nH]cnc2cc1F`, the AUC [1] was 2.3 µM·h, the EC50 [2] was 11 nM and the IC50 [3] was 110 nM. The Ratio [4] was 0.4.

In the case of `O=C(O)c1c(-c2ccc[nH]c2=O)c2c3occc3c(F)cc2n1Cc1cc2c(=O)[nH]cnc2cc1F`, the Activity [5] is reported as “Non-toxic”, the half-life [6] is reported as 3.2 h and the inhibition [7] is reported as “Active”. For the same compound, the clearance [8] was 0.2 mL/min/kg, the half-life [9] was 9.4 h and the inhibition [10] was “inactive”. The IC50 [11] was > 5000 nM, the clearance [12] was 0.6 mL/min/kg and the Cmax [13] was 100 nM. For the same compound, the inhibition [14] was “Active”, the AUC(0-t) at 24 h [15] was 8 µM·h and the Cmax [16] was 800 nM. The AUC(0-t) at 6 h [17] was 4.3 µM·h, the IC50 [18] was > 5000 nM and the AUC(0-t) at 24 h [19] was 0.4 µM·h. The half-life [20] was 8.9 h, the Activity [21] was “Non-toxic” and the EC50 [2] was 6 nM. The IC50 [3] was 5 nM, the clearance [22] was 11 mL/min/kg and the IC50 [23] was > 5000 nM. For the same compound, the bioavailability [24] was 5%, the bioavailability [25] was 0.7% and the inhibition [26] was “Active”. For the same compound, the bioavailability [27] was 4%, the IC50 [28] was 7 nM and the inhibition [29] was “inactive”. The Cmax [30] was 1400 nM, the inhibition [31] was “inactive” and the AUC(0-t) at 24 h [32] was 10 µM·h.

For `CCOC(=O)c1c(-c2ccc[nH]c2=O)c2c3occc3c(F)cc2n1Cc1cc2c(=O)[nH]cnc2cc1F`, the AUC [1] was 0.22 µM·h, the EC50 [2] was 22 nM and the IC50 [3] was 9 nM.

With `CN(C)CCOC(=O)c1c(-c2ccc[nH]c2=O)c2c3occc3c(F)cc2n1Cc1cc2c(=O)[nH]cnc2cc1F.Cl` the Activity [5] was “Non-toxic”, the inhibition [7] was “Active” and the solubility [33] was 900 µM. The inhibition [10] was “inactive”, the inhibition [14] was “Active” and the t1/2 [34] was 22 h. The t1/2 [35] was 11 h, the AUC [36] was 22 µM·h and the AUC [37] was 2.4 µM·h. For the same compound, the Activity [21] was “Non-toxic”, the Cmax [38] was 800 nM and the EC50 [2] was 5 nM. It also gave a t1/2 [39] of 4 h, an IC50 [3] of 150 nM and an F [40] of 2%. The F [41] was 29%, the inhibition [26] was “Active” and the F [42] was 63%. For the same compound, the Cmax [43] was 4100 nM, the inhibition [29] was “inactive” and the AUC [44] was 144 µM·h. The inhibition [31] was “inactive”, the Cmax [45] was 2100 nM and the Ratio [4] was 0.5.

With `CN(C)CCCCOC(=O)c1c(-c2ccc[nH]c2=O)c2c3occc3c(F)cc2n1Cc1cc2c(=O)[nH]cnc2cc1F` the AUC [1] was 0.79 µM·h, the EC50 [2] was 14 nM and the IC50 [3] was 75 nM.

For `NC(=O)c1ccc(F)c(Cn2c(C(=O)NS(=O)(=O)C3CC3)c(-c3ccc[nH]c3=O)c3c4occc4c(F)cc32)c1`, the AUC(0-t) at 6 h [17] was 0.21 µM·h, the EC50 [2] was 10 nM and the IC50 [3] was 5 nM.
